# Experimental data from patent publication US8853193B2, “Thienopyrimidines containing a substituted alkyl group for pharmaceutical compositions” (Boehringer Ingelheim International GmbH, priority 2010, dated 2014).
# pIC50: −log10 of the molar value. Counter-ions that a name gives are not always drawn.
# Molecular target: human Mnk2a (Homo sapiens (Human), UniProt Q9HBH9)
# Assay: Mnk2a in vitro kinase assay (indirect competitive fluorescence polarization)
# Format: biochemical
# Conditions: pre-activated GST-Mnk2a 2.5 nM, 20 μM ATP, 30 μM substrate peptide; read-out: MNK2 IC50
# Experimental: Inhibitory potency of compounds against Mnk1, Mnk2a and other kinases was assessed with assays based on a format known to those skilled in the art as the indirect (competitive) fluorescence polarization. The assay detection system comprises a small fluorophore-labeled phospho-peptide (termed ligand) bound to a phospho-specific antibody. The product generated by the kinase reaction competes with the ligand for antibody binding. Based on the larger molecular volume of the bound ligand, which results in a lower rotation rate in solution, its emitted light has a higher degree of polarization than the one from the free ligand.
# In brief, the open reading frames of human Mnk1 and Mnk2a were amplified from cDNA using the forward/reverse primer pairs
# (utilized restriction sites underlined), respectively, and cloned into the BamHI and SalI sites of the vector pGEX-4T1 (Amersham, Sweden, cat. no. 27-4580-01). These constructs allow prokaryotic expression of Mnk1 or Mnk2a as fusion protein with a N-terminal glutathione S-transferase (GST) tag, referred to as GST-Mnk1 or GST-Mnk2a. The following expression and purification procedure was identical for GST-Mnk1 and GST-Mnk2a, referring in general to GST-Mnk, when not distinguishing between the two isoforms. Expression of GST-Mnk was in E. coli BL21 (Merck Biosciences, Germany, cat. no. 69449). Cells were grown in LB-Bouillon (Merck, Germany, cat. no. 1.10285) supplemented with 100 μg/ml ampicillin (Sigma, Germany, cat. no. A9518) at 37° C. […] Cells harvested by centrifugation were resuspended in 10 ml lysis buffer (50 mM tris(hydroxymethyl)aminomethane hydrochloride (Tris/HCl, Sigma, Germany, cat. no. T5941) pH 7.5, 300 mM sodium chloride (NaCl, Sigma, Germany, cat. no. S7653), 5% (w/v) glycerol (Sigma, Germany, cat. no. G5516), 3 mM DTT dithiotreitol (DTT, Sigma, Germany, cat. no. D9779)) per gram wet weight cell pellet. Lysates were prepared by disruption of cells with a sonifier and subsequent clearing by centrifugation at 38000 g for 45 min at 4° C.
# The lysate was applied to a GSTPrep FF 16/10 column (Amersham, Sweden, cat. no. 17-5234-01) equilibrated with lysis buffer. Removal of unbound material was with 3 column volumes (CV) lysis buffer. Elution was with 2 CV of elution buffer (50 mM Tris/HCl pH 7.5, 300 mM NaCl, 5% (w/v) glycerol, 20 mM glutathione (Sigma, Germany, cat. no. G4251)). Peak fractions were pooled and the protein transferred into storage buffer (50 mM Tris/HCl pH 7.5, 200 mM NaCl, 0.1 mM ethylene glycol[…] bis(2-aminoethylether)-N,N,N′,N′-tetraacetic acid (EGTA, Aldrich, Germany, cat. no. 23, 453-2), 1 mM DTT, 10% (w/v) glycerol, 0.5 M sucrose (Sigma, Germany, cat. no. S0389) by gel filtration on a PD10 desalting column (Amersham, Sweden, cat. no. 17-0851-01). Aliquots were shock frozen in liquid nitrogen and stored at −80° C.
# Activation of Mnk1 and Mnk2a was at a concentration of 2.5 μM of either purified GST-Mnk1 or GST-Mnk2a by incubation with 150 nM pre-activated NHis-ERK2 (see ERK2 assay for preparation) and 50 μM adenosine triphosphate (ATP, Sigma, cat. no. A2699) in a buffer comprising 20 mM N-(2-hydroxyethyl)piperazine-N′-(2-ethanesulfonic acid) (HEPES, Fluka, Germany, cat. no 54459)/potassium hydroxide (KOH, Roth, Germany, cat. no 6751.1) pH 7.4, 10 mM magnesium chloride (MgCl2, Sigma, Germany, cat. no. M2670), 0.25 mM DTT, 0.05% (w/v) polyoxyethylene 20 stearylether (Brij 78, Sigma, Germany, cat. no. P4019) (HMDB buffer) for 45 min at 30° C. After the incubation, the preparation was aliquoted into single-use samples, shock frozen in liquid nitrogen, stored at −80° C. and utilized for Mnk1 or Mnk2a kinase assays as detailed below.
# The serine residue phosphorylated by Mnk kinases is underlined.
# Chain of human Mnk2a (Q9HBH9 whole entry): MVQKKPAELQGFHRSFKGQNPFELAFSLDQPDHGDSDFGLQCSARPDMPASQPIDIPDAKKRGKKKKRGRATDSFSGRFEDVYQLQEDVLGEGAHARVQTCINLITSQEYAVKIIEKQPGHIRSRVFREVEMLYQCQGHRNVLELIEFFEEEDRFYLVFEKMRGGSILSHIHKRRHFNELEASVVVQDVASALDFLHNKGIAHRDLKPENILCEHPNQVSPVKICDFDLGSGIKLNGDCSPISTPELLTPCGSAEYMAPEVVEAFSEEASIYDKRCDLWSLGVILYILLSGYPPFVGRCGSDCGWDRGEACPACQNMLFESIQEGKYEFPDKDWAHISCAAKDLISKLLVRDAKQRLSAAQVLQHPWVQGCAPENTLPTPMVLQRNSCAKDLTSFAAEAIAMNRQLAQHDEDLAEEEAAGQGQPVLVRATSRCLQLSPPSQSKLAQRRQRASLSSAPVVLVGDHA
row,pIC50,Compound
1,6.33,"COC(=O)c1sc2ncnc(Nc3ccc(F)cc3OC(C)CCNC(C)=O)c2c1C (stereo not shown) [Compound 13-2, Methyl 4-(2-(4-acetamidobutan-2-yloxy)-4-fluorophenyl-amino)-5-methyl-thieno[2,3-d]pyrimidine-6-carboxylate]"
2,6.17,"COC(=O)c1sc2ncnc(Nc3ccc(F)cc3OC(C)CCNC(=O)C(C)C)c2c1C (stereo not shown) [Compound 13-3, Methyl 4-(4-fluoro-2-(4-isobutyramido-butan-2-yloxy)-phenylamino)-5-methylthieno[2,3-d]pyrimidine-6-carboxylate]"
3,6.05,"CCCCNC(=O)NCCC(C)Oc1cc(F)ccc1Nc1ncnc2sc(C(=O)OC)c(C)c12 (stereo not shown) [Compound 13-4, Methyl 4-(2-(4-(3-butylureido)-butan-2-yloxy)-4-fluorophenyl-amino)-5-methylthieno[2,3-d]pyrimidine-6-carboxylate]"
4,5.99,COC(=O)c1sc2ncnc(Nc3ccc(F)cc3OC(C)CCN(C)C)c2c1C (stereo not shown) [Compound 14]
5,6.76,"COC(=O)c1sc2ncnc(Nc3cccnc3OC(C)CCN)c2c1C (stereo not shown) [Compound 15-2, Methyl 4-(2-((4-aminobutan-2yloxy)pyridin-3ylamino)-5-methyl-thieno[2,3-d]pyrimidine-6-carboxylate trifluoroacetate]"
6,7.13,"Cc1c(C(=O)NCCCN(C)C)sc2ncnc(Nc3cccnc3OC(C)CCN)c12 (stereo not shown) [Compound 16-3, 4-(2-(4-Aminobutan-2yloxy)pyridin-3-ylamino)-N-(3-(dimethylamino)propyl)-5-methylthieno[2,3-d]pyrimidine-6-carboxamide bis(2,2,2-trifluoroacetate)]"
7,7.36,Cc1c(C(N)=O)sc2ncnc(Nc3cccnc3OC(C)CCN)c12 (stereo not shown) [Compound 16-4]
8,6.16,"COC(=O)c1sc2ncnc(Nc3ccc(F)cc3OC(CN)CN)c2c1C [Compound 18-2, Methyl 4-(2-(1,3-diaminopropan-2-yloxy)-4-fluorophenylamino)-5-methylthieno[2,3-d]pyrimidine-6-carboxylate bis(trifluoroacetate)]"
9,5.82,"COC(=O)c1sc2ncnc(Nc3ccc(F)cc3OC(CN)CNC(C)=O)c2c1C (stereo not shown) [Compound 19-1, Methyl 4-(2-(1-acetamido-3-aminopropan-2-yloxy)-4-fluorophenylamino)-5-methylthieno[2,3-d]pyrimidine-6-carboxylate trifluoroacetate]"
10,5.93,"COC(=O)c1sc2ncnc(Nc3ccc(F)cc3OC(CN)CNS(C)(=O)=O)c2c1C (stereo not shown) [Compound 19-2, Methyl 4-(2-(1-amino-3-(methyl-sulfonamido)-propan-2-yloxy)-4-fluoro-phenylamino)-5-methylthieno[2,3-d]pyrimidine-6-carboxylate trifluoroacetate]"
11,6.85,"COC(=O)c1sc2ncnc(Nc3ccc(F)cc3OC(C)CC(C)(C)O)c2c1C (stereo not shown) [Compound 20-1, Methyl 4-(4-fluoro-2-(4-hydroxy-4-methylpentan-2-yloxy)phenylamino)-5-methyl-thieno[2,3-d]pyrimidine-6-carboxylate]"
12,7.60,"Cc1c(C(=O)O)sc2ncnc(Nc3ccc(F)cc3OC(C)CC(C)(C)O)c12 (stereo not shown) [Compound 20-2, 4-(4-fluoro-2-(4-hydroxy-4-methylpentan-2-yloxy)phenylamino)-5-methyl-thieno[2,3-d]pyrimidine-6-carboxylic acid]"
13,7.23,"Cc1c(C(=O)NCCCN(C)C)sc2ncnc(Nc3ccc(F)cc3OC(C)CC(C)(C)O)c12 (stereo not shown) [Compound 20-3, N-(3-(Dimethylamino)propyl)-4-(4-fluoro-2-(4-hydroxy-4-methylpentan-2-yloxy)phenylamino)-5-methyl-thieno[2,3-d]pyrimidine-6-carboxamide trifluoroacetate]"
14,7.82,"Cc1c(C(=O)O)sc2ncnc(Nc3cccnc3OC(C)C(F)(F)F)c12 (stereo not shown) [Compound 21-2, 5-Methyl-4-(2-(1,1,1-trifluoropropan-2-yloxy)pyridin-3-ylamino)thieno[2,3-d]pyrimidine-6-carboxylic acid]"
15,7.96,"Cc1c(C(N)=O)sc2ncnc(Nc3cccnc3OC(C)C(F)(F)F)c12 (stereo not shown) [Compound 21-3, 5-Methyl-4-(2-(1,1,1-trifluoropropan-2-yloxy)pyridin-3-ylamino)thieno[2,3-d]pyrimidine-6-carboxamide]"
16,7.27,"Cc1c(C(=O)NC2CCN(C)CC2)sc2ncnc(Nc3cccnc3OC(C)C(F)(F)F)c12 (stereo not shown) [Compound 21-4, 5-methyl-N-(1-methylpiperidin-4-yl)-4-(2-(1,1,1-trifluoropropan-2-yloxy)pyridin-3-ylamino)thieno[2,3-d]pyrrimidine-6-carboxamide]"
17,7.38,"Cc1c(C(=O)NCCCN(C)C)sc2ncnc(Nc3cccnc3OC(C)C(F)(F)F)c12 (stereo not shown) [Compound 21-5, N-(3-(dimethyl-amino)propyl)-5-methyl-4-(2-(1,1,1-trifluoro-propan-2-yloxy)-pyridin-3-yl-amino)thieno[2,3-d]pyrimidine-6-carboxamide]"
18,7.92,"CNC(=O)c1sc2ncnc(Nc3cccnc3OC(C)C(F)(F)F)c2c1C (stereo not shown) [Compound 21-6, N-Methyl-5-methyl-4-(2-(1,1,1-trifluoro-propan-2-yloxy)-pyridin-3-yl-amino)thieno[2,3-d]pyrimidine-6-N-methylcarboxamide]"
19,7.62,"Cc1c(C(=O)NCC#CCN(C)C)sc2ncnc(Nc3cccnc3OC(C)C(F)(F)F)c12 (stereo not shown) [Compound 21-7, 5-Methyl-4-[2-(2,2,2-trifluoro-1-methyl-ethoxy)-pyridin-3-ylamino]-thieno[2,3-d]pyrimidine-6-carboxylic acid (4-dimethylamino-but-2-ynyl)-amide]"
20,7.70,"Cc1c(C(=O)NCCO)sc2ncnc(Nc3cccnc3OC(C)C(F)(F)F)c12 (stereo not shown) [Compound 21-8, 5-Methyl-4-[2-(2,2,2-trifluoro-1-methyl-ethoxy)-pyridin-3-ylamino]-thieno[2,3-d]pyrimidine-6-carboxylic acid (4-hydroxy-ethyl)-amide]"
21,6.53,"CCOCC(COCC)Oc1cc(F)ccc1Nc1ncnc2sc(C(N)=O)c(C)c12 [Compound 22-3, 4-(2-(1,3-Diethoxypropan-2-yloxy)-4-fluorophenylamino)-5-methyl-thieno[2,3-d]pyrimidine-6-carboxamide]"
22,7.11,"COC(=O)c1sc2ncnc(Nc3ccc(F)cc3OC(CF)CF)c2c1C [Compound 23-1, Methyl 4-(2-(1,3-difluoropropan-2-yloxy)-4-fluorophenylamino)-5-methyl-thieno[2,3-d]pyrimidine-6-carboxylate]"
23,8.22,"Cc1c(C(=O)O)sc2ncnc(Nc3ccc(F)cc3OC(CF)CF)c12 [Compound 23-2, 4-(2-(1,3-Difluoropropan-2-yloxy)-4-fluorophenylamino)-5-methyl-thieno[2,3-d]pyrimidine-6-carboxylic acid]"
24,8.40,"Cc1c(C(N)=O)sc2ncnc(Nc3ccc(F)cc3OC(CF)CF)c12 [Compound 23-3, 4-(2-(1,3-Difluoropropan-2-yloxy)-4-fluorophenylamino)-5-methyl-thieno[2,3-d]pyrimidine-6-carboxamide]"
25,8.10,"CNC(=O)c1sc2ncnc(Nc3ccc(F)cc3OC(CF)CF)c2c1C [Compound 23-4, 4-(2-(1,3-difluoro-propan-2-yloxy)-4-fluorophenylamino)-N,5-dimethylthieno [2,3d]pyrimidine-6-carboxamide]"
